Data taken from patent US5659023A, “Nucleotide analogues” (Gilead Sciences, Inc., priority 1995, dated 1997).
Like-named read-outs stand apart in the source and are kept apart here.

Tests used:
[1] = system: human CMV; assay: standard plaque inhibition assay, inhibitory effect against human CMV; type: cell-based; settings: Human betaherpesvirus 5
Experimental: (§1) Compounds made in the foregoing examples were assayed for inhibitory effect against human CMV using the standard plaque inhibition assay (Lurain, "J. Vir." 66:7146-7152 (1992)). The cells used for the toxicity assay were normal human dermal fibroblasts.

[2] = toxicity assay in normal human dermal fibroblasts; type: cell-based
Experimental: as §1

[3] = human CMV, plaque inhibition assay (Table 8), read-out: IC50

SMILES	IC50 [1, 3] [µM]	CC50 [2] [µM]	IC50 [1] [µM]	IC50 ([1]; reference HPMPC, read-out: IC50) [µM]	CC50 ([2]; reference HPMPC, read-out: CC50) [µM]
Nc1ccn([C@@H]2CC=C(P(=O)(O)O)O[C@@H]2CO)c(=O)n1 [(28'), 4-(cytosin-1-yl)-2,3-dideoxy-D-threo-hex-1-enopyranosyl phosphonic acid]	40	> 1000	–	–	–
Nc1ccn([C@@H]2C=C[C@H](P(=O)(O)O)O[C@@H]2CO)c(=O)n1 [(30), 4-(cytosin-1-yl)-2,3-dideoxy-β-D-threo-hex-2-enopyranosylphosphonic acid]	–	> 1000	10	–	–
Nc1ccn([C@@H]2CC[C@H](P(=O)(O)O)O[C@@H]2CO)c(=O)n1 [(32'), 4-(cytosin-1-yl)-β-D-threo-hexopyranosylphosphonic acid]	80	> 1000	–	–	–
C[C@@H]1O[C@H](P(=O)(O)O)C=C[C@@H]1n1ccc(N)nc1=O [(64), 4-(cytosin-1-yl)-2,3,6-trideoxy-β-L-threo-hex-2-enopyranosylphosphonic acid]	200	> 1000	–	–	–
C[C@@H]1OC(P(=O)(O)O)=CC[C@@H]1n1ccc(N)nc1=O [(65), 4-(cytosin-1-yl)-2,3,6-trideoxy-L-threo-hex-1-enopyranosylphosphonic acid]	300	> 1000	–	–	–
Nc1ccn(C[C@@H](CO)OCP(=O)(O)O)c(=O)n1 [HPMPC, reference compound]	–	–	–	0.5	200
